Values joined by “and” are separate entries in the source; they are usually repeats but may differ in a detail not shown here. Equal values may be shown once. Inconclusive results and toxic doses are left out. How the source made its calls: active means survival T/C of 150% or more; inactive means T/C below 125% in these data.
Test system: CD2F1 mice, L1210 leukemia ip, survival T/C
Experiment: NCI In Vivo Anticancer Drug Screen. Data for tumor model L1210 Leukemia (intraperitoneal) in CD2F1 (CDF1) mice
Conditions: higher = longer survival
Procedure, shortened: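 Tumor-bearing mice (transplanted tumor) were split into treated and vehicle control groups, and the measured endpoint of each treated group was divided by that of its vehicle controls.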

[1] = endpoint: mean survival time, dose: 100.0 mg/kg/injection, schedule: Q04DX002 (ip), vehicle: saline with Tween-80
[2] = endpoint: mean survival time, dose: 200.0 mg/kg/injection, schedule: Q04DX002 (ip), vehicle: saline with Tween-80
[3] = endpoint: mean survival time, dose: 400.0 mg/kg/injection, schedule: Q04DX002 (ip), vehicle: saline with Tween-80
[4] = endpoint: mean survival time, dose: 100.0 mg/kg/injection, schedule: Q01DX001 (ip), vehicle: Klucel (hydroxypropylcellulose) (HPC)
[5] = endpoint: mean survival time, dose: 100.0 mg/kg/injection, schedule: Q01DX009 (ip), vehicle: saline
[6] = endpoint: mean survival time, dose: 200.0 mg/kg/injection, schedule: Q01DX009 (ip), vehicle: saline
[7] = endpoint: mean survival time, dose: 400.0 mg/kg/injection, schedule: Q01DX009 (ip), vehicle: saline
[8] = endpoint: mean survival time, dose: 100.0 mg/kg/injection, schedule: Q04DX003 (ip), vehicle: saline with Tween-80
[9] = endpoint: mean survival time, dose: 200.0 mg/kg/injection, schedule: Q04DX003 (ip), vehicle: saline with Tween-80
[10] = endpoint: mean survival time, dose: 400.0 mg/kg/injection, schedule: Q04DX003 (ip), vehicle: saline with Tween-80
[11] = endpoint: mean survival time, dose: 100.0 mg/kg/injection, schedule: Q01DX001 (ip), vehicle: saline with Tween-80
[12] = endpoint: mean survival time, dose: 200.0 mg/kg/injection, schedule: Q01DX001 (ip), vehicle: saline with Tween-80
[13] = endpoint: mean survival time, dose: 400.0 mg/kg/injection, schedule: Q01DX001 (ip), vehicle: saline with Tween-80
[14] = endpoint: mean survival time, dose: 100.0 mg/kg/injection, schedule: Q01DX009 (ip), vehicle: saline with Tween-80
[15] = endpoint: mean survival time, dose: 1.56 mg/kg/injection, schedule: Q01DX009 (ip), vehicle: saline with Tween-80
[16] = endpoint: mean survival time, dose: 3.12 mg/kg/injection, schedule: Q01DX009 (ip), vehicle: saline with Tween-80
[17] = endpoint: mean survival time, dose: 6.25 mg/kg/injection, schedule: Q01DX009 (ip), vehicle: saline with Tween-80
[18] = endpoint: mean survival time, dose: 12.5 mg/kg/injection, schedule: Q01DX009 (ip), vehicle: saline with Tween-80
[19] = endpoint: mean survival time, dose: 25.0 mg/kg/injection, schedule: Q01DX009 (ip), vehicle: saline
[20] = endpoint: mean survival time, dose: 50.0 mg/kg/injection, schedule: Q01DX009 (ip), vehicle: saline

Measured: T/C

O=C(O)c1c(F)cccc1Br
inactive: [1] 102 % of control | [2] 98 % of control | [3] 102 % of control

Nc1nnc2c3[nH]cnc3ncn12
inactive: [4] 98 % of control | endpoint: mean survival time, dose: 200.0 mg/kg/injection, schedule: Q01DX001 (ip), vehicle: Klucel (hydroxypropylcellulose) (HPC) 95 % of control | endpoint: mean survival time, dose: 400.0 mg/kg/injection, schedule: Q01DX001 (ip), vehicle: Klucel (hydroxypropylcellulose) (HPC) 104 % of control

CN(C)P(=O)(N(C)C)N(C)C
inactive: [5] 105 % of control | [6] 104 % of control | [7] 107 % of control

COc1ccc(NC(=O)CC(C)(C)C(=O)O)cc1
inactive: [8] 101 % of control | [9] 100 % of control | [10] 103 % of control

CCCCCCCCCCCCCCSc1ccc(Br)cc1
inactive: [11] 110 % of control | [12] 101 % of control | [13] 93 % of control

Cc1ccc(NC(=O)c2ccccc2C(=O)O)cc1
inactive: [8] 101 % of control | [9] 97 % of control | [10] 95 % of control

COc1cccc(C(=O)NC[n+]2cccc(O)c2)c1
inactive: [11] 100 % of control | [12] 92 % of control | [13] 88 % of control

CC(C)N(C(C)C)S(=O)(=O)c1ccccc1C(O)(c1ccccc1)c1ccccc1
inactive: [14] 92 % of control | [8] 94 % of control | [9] 96 % of control | [10] 89 % of control

CCOC(=O)N(C)c1ccc(Cl)cc1C(N)=O
inactive: [1] 101 % of control | [2] 97 % of control | [3] 118 % of control

COC1OC(COS(=O)(=O)c2ccc(C)cc2)C(SC#N)C1OS(=O)(=O)c1ccc(C)cc1 (stereo not given)
inactive: endpoint: mean survival time, dose: 50.0 mg/kg/injection, schedule: Q01DX001 (ip), vehicle: saline 91 % of control | endpoint: mean survival time, dose: 100.0 mg/kg/injection, schedule: Q01DX001 (ip), vehicle: saline 89 % of control | endpoint: mean survival time, dose: 200.0 mg/kg/injection, schedule: Q01DX001 (ip), vehicle: saline 95 % of control | endpoint: mean survival time, dose: 400.0 mg/kg/injection, schedule: Q01DX001 (ip), vehicle: saline 95 % of control

NCC(=O)Nc1ccccc1
inactive: [5] 103 % of control | [6] 113 % of control | [7] 97 % of control

NC(=O)/C=C/C(=O)c1c(Cl)cccc1Cl
inactive: endpoint: mean survival time, dose: 0.78 mg/kg/injection, schedule: Q01DX009 (ip), vehicle: saline with Tween-80 98 % of control | endpoint: mean survival time, dose: 0.79 mg/kg/injection, schedule: Q01DX009 (ip), vehicle: saline with Tween-80 97 % of control | [15] 95 % of control and 97 % of control | [16] 91 % of control and 104 % of control | [17] 97 % of control and 101 % of control | [18] 98 % of control and 100 % of control

Cc1cccc(Cl)c1NC(=O)Nc1ccc(C(=O)O)c(O)c1
inactive: [14] 97 % of control | endpoint: mean survival time, dose: 200.0 mg/kg/injection, schedule: Q01DX009 (ip), vehicle: saline with Tween-80 103 % of control | endpoint: mean survival time, dose: 400.0 mg/kg/injection, schedule: Q01DX009 (ip), vehicle: saline with Tween-80 114 % of control

COC(=O)C(=O)Cc1cc(OC)cc(=O)o1
inactive: [8] 100 % of control | [9] 101 % of control | [10] 95 % of control

CCOc1ccc2nc3cc(N)ccc3c(N)c2c1
inactive: [19] 101 % of control | [20] 113 % of control | [5] 122 % of control and 101 % of control | endpoint: mean survival time, dose: 100.0 mg/kg/injection, schedule: Q04DX003 (ip), vehicle: saline 114 % of control | endpoint: mean survival time, dose: 200.0 mg/kg/injection, schedule: Q04DX003 (ip), vehicle: saline 105 % of control | endpoint: mean survival time, dose: 400.0 mg/kg/injection, schedule: Q04DX003 (ip), vehicle: saline 105 % of control

NNC(=O)c1cccc(N)c1
inactive: endpoint: mean survival time, dose: 25.0 mg/kg/injection, schedule: Q01DX009 (ip), vehicle: saline sonified 98 % of control | endpoint: mean survival time, dose: 50.0 mg/kg/injection, schedule: Q01DX009 (ip), vehicle: saline sonified 102 % of control | endpoint: mean survival time, dose: 100.0 mg/kg/injection, schedule: Q01DX009 (ip), vehicle: saline sonified 102 % of control | [8] 104 % of control

O=Nc1sc2ccccc2c1O
inactive: [8] 104 % of control | [9] 96 % of control | [10] 96 % of control

S=C(S)c1[nH]c(=S)[nH]c(=S)c1Cl
inactive: [8] 96 % of control | [9] 101 % of control | [10] 87 % of control

C=C1CC(=O)N(c2ccc(OC)cc2)C1=O
inactive: endpoint: mean survival time, dose: 25.0 mg/kg/injection, schedule: Q04DX003 (ip), vehicle: saline with Tween-80 100 % of control | endpoint: mean survival time, dose: 50.0 mg/kg/injection, schedule: Q04DX003 (ip), vehicle: saline with Tween-80 107 % of control | [8] 104 % of control

[N-]=[N+]=NCC(=O)N1c2ccccc2Sc2ccccc21
inactive: endpoint: mean survival time, dose: 12.5 mg/kg/injection, schedule: Q01DX009 (ip), vehicle: other 95 % of control | endpoint: mean survival time, dose: 25.0 mg/kg/injection, schedule: Q01DX009 (ip), vehicle: other 103 % of control | endpoint: mean survival time, dose: 50.0 mg/kg/injection, schedule: Q01DX009 (ip), vehicle: other 98 % of control | endpoint: mean survival time, dose: 100.0 mg/kg/injection, schedule: Q01DX009 (ip), vehicle: other 101 % of control | endpoint: mean survival time, dose: 200.0 mg/kg/injection, schedule: Q01DX009 (ip), vehicle: other 95 % of control

CC(C)=CCC/C(C)=C/COc1ccc(/C=C2/C(=O)N(O)[C@@H](C)C(=O)N2O)cc1
inactive: [15] 101 % of control | [16] 96 % of control | endpoint: mean survival time, dose: 3.12 mg/kg/injection, schedule: Q01DX009 (ip), vehicle: saline 94 % of control | [17] 101 % of control | endpoint: mean survival time, dose: 6.25 mg/kg/injection, schedule: Q01DX009 (ip), vehicle: saline 96 % of control | [18] 101 % of control | endpoint: mean survival time, dose: 12.5 mg/kg/injection, schedule: Q01DX009 (ip), vehicle: saline 100 % of control | endpoint: mean survival time, dose: 25.0 mg/kg/injection, schedule: Q01DX009 (ip), vehicle: saline with Tween-80 106 % of control | [19] 108 % of control | endpoint: mean survival time, dose: 50.0 mg/kg/injection, schedule: Q01DX009 (ip), vehicle: saline with Tween-80 112 % of control | [20] 100 % of control | [5] 100 % of control

C[Si](C)(CN)CN.O=C([O-])C1(C(=O)[O-])CCC1.[Pt+4]
active: endpoint: median survival time, dose: 20.0 mg/kg/injection, schedule: Q04DX003 (ip), vehicle: water 151 % of control | endpoint: median survival time, dose: 25.0 mg/kg/injection, schedule: Q04DX003 (ip), vehicle: water 151 % of control | endpoint: median survival time, dose: 40.0 mg/kg/injection, schedule: Q04DX003 (ip), vehicle: water 164 % of control and 177 % of control | endpoint: median survival time, dose: 50.0 mg/kg/injection, schedule: Q04DX003 (ip), vehicle: water 175 % of control | endpoint: median survival time, dose: 60.0 mg/kg/injection, schedule: Q04DX003 (ip), vehicle: water 181 % of control | endpoint: median survival time, dose: 80.0 mg/kg/injection, schedule: Q04DX003 (ip), vehicle: water 244 % of control | endpoint: median survival time, dose: 100.0 mg/kg/injection, schedule: Q04DX003 (ip), vehicle: water 175 % of control
inactive: endpoint: median survival time, dose: 2.5 mg/kg/injection, schedule: Q04DX003 (ip), vehicle: water 110 % of control | endpoint: median survival time, dose: 5.0 mg/kg/injection, schedule: Q04DX003 (ip), vehicle: water 107 % of control | endpoint: median survival time, dose: 10.0 mg/kg/injection, schedule: Q04DX003 (ip), vehicle: water 122 % of control

O=C1Cc2ccccc2O1
inactive: [19] 93 % of control | [20] 96 % of control | [5] 100 % of control | [6] 97 % of control

CCOC(=O)Nc1cc2c(c(N)n1)N=C(c1ccc(Cl)cc1)CN2
inactive: endpoint: mean survival time, dose: 3.0 mg/kg/injection, schedule: Q01DX009 (ip), vehicle: Klucel (hydroxypropylcellulose) (HPC) 110 % of control | endpoint: mean survival time, dose: 6.0 mg/kg/injection, schedule: Q01DX009 (ip), vehicle: Klucel (hydroxypropylcellulose) (HPC) 110 % of control | endpoint: mean survival time, dose: 12.0 mg/kg/injection, schedule: Q01DX009 (ip), vehicle: Klucel (hydroxypropylcellulose) (HPC) 114 % of control | endpoint: mean survival time, dose: 12.5 mg/kg/injection, schedule: Q01DX001 (ip), vehicle: Klucel (hydroxypropylcellulose) (HPC) 102 % of control | endpoint: mean survival time, dose: 25.0 mg/kg/injection, schedule: Q01DX001 (ip), vehicle: Klucel (hydroxypropylcellulose) (HPC) 111 % of control | endpoint: mean survival time, dose: 25.0 mg/kg/injection, schedule: Q01DX009 (ip), vehicle: Klucel (hydroxypropylcellulose) (HPC) 110 % of control | endpoint: mean survival time, dose: 50.0 mg/kg/injection, schedule: Q01DX001 (ip), vehicle: Klucel (hydroxypropylcellulose) (HPC) 114 % of control | [4] 116 % of control

From PubChem BioAssay AID256 (DTP/NCI, 2004)
